Results on eleven molecules are retold here after ChEMBL document CHEMBL1201862, “PubChem BioAssay data set” (2004).

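Cells were grown in 96-well plates and exposed to each compound for 48 hours at five concentrations; endpoints were interpolated linearly between bracketing concentrations, or set to the highest concentration if not reached. GI50: concentration for 50% inhibition of growth.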 Activity calls are given as the source filed them. No stated cut-off is given here; in the data, active = GI50 up to about 1.1 µM and inactive = higher.

Test systems include HT-29; OVCAR-4; HCT-15; OVCAR-8; M14; SK-MEL-2; A498; BT-549; HOP-92; RXF 393; HOP-62; SK-MEL-28; MOLT-4; KM12; IGROV-1; SNB-19; UACC-257; CCRF-CEM; COLO 205; K562.
Assay in all cases: growth of human tumour cells (NCI), 48 h

`FC(F)(F)c1ccc2nc3n(c2c1)C(c1c(Cl)cccc1Cl)SC3` (configuration not stated): the GI50 was 15.4 µM (inactive) in the assay on HT-29; 15.8 µM (inactive) in the assay on OVCAR-4; 14.2 µM in the assay on HCT-15; 19.6 µM (inactive) with OVCAR-8; 16 µM (inactive) with M14; 18.2 µM (inactive) in the assay with SK-MEL-2. Also, the GI50 is 19.8 µM (inactive) with A498; 20.7 µM (inactive) in the assay on BT-549; 4.65 µM (inactive) in the assay with HOP-92; 15.2 µM (inactive) in the assay with RXF 393; 15.8 µM (inactive) in the assay on HOP-62; 14.9 µM (inactive) with SK-MEL-28. Moreover, the GI50 in the assay with MOLT-4 was 9.48 µM (inactive); with KM12, 14.6 µM (inactive); with IGROV-1, 11.5 µM (inactive); in the assay on SNB-19, 18.6 µM (inactive); in the assay on UACC-257, 14.1 µM (inactive).

As to `S=c1[nH]c(Cl)cc2nc(Cl)cn12`, the GI50 in the assay on HT-29 was 4.66 µM (inactive); with OVCAR-4, 6.14 µM (inactive); with HCT-15, 4.68 µM; in the assay with CCRF-CEM it was 2.52 µM (inactive); in the assay with OVCAR-8, 4.74 µM (inactive); with M14, 4.24 µM (inactive). In addition, the GI50 in the assay on SK-MEL-2 is 3.85 µM (inactive); in the assay with A498, 14.4 µM (inactive); with BT-549 it was 9.89 µM (inactive); in the assay with HOP-92, 17.5 µM (inactive); with RXF 393 it was 2.84 µM (inactive); with HOP-62 it was 4.84 µM (inactive). The GI50 with COLO 205 was 2.83 µM (inactive); in the assay with SK-MEL-28, 8.2 µM (inactive); with KM12, 4.14 µM (inactive); in the assay on IGROV-1, 4.34 µM (inactive); with SNB-19, 6.04 µM (inactive); in the assay with UACC-257, > 100 µM (inactive).

For `CCN(CC)CCCNc1nnc(C)c2[nH]c3ccccc3c12`, the GI50 in the assay with HT-29 was 6.49 µM (inactive); in the assay on HCT-15, over 100 µM; in the assay with CCRF-CEM, 4.42 µM (inactive); in the assay on OVCAR-8, 7.93 µM (inactive); in the assay on M14 it was 16 µM (inactive); in the assay on SK-MEL-2, 15.2 µM (inactive). The GI50 is 17.2 µM (inactive) in the assay on A498; 21.6 µM (inactive) with BT-549; 6.9 µM (inactive) in the assay with HOP-92; 17.7 µM (inactive) in the assay with RXF 393; 10.1 µM (inactive) in the assay with K562; 7.31 µM (inactive) in the assay on HOP-62. The GI50 with COLO 205 is 2.7 µM (inactive); in the assay on SK-MEL-28, 18.7 µM (inactive); in the assay on MOLT-4, 4.1 µM (inactive); in the assay on KM12, 11.4 µM (inactive); in the assay on IGROV-1, 12.1 µM (inactive); in the assay on SNB-19 it was 19.3 µM (inactive). Besides, in the assay with UACC-257, the GI50 was 15.1 µM (inactive).

Consider `Cc1cc(S(=O)(=O)[N-]/C(=N/S(=O)(=O)c2ccc(Cl)cc2)[n+]2ccc(N(C)C)cc2)c(SCC(=O)O)cc1Cl`, for which the GI50 in the assay with HT-29 is 57.5 µM (inactive); in the assay with OVCAR-4 it was 34.8 µM (inactive); in the assay with HCT-15, over 100 µM; in the assay on CCRF-CEM, 45.3 µM (inactive); in the assay with OVCAR-8, > 100 µM (inactive); with M14, 25.2 µM (inactive). Moreover, the GI50 in the assay with A498 is 45.4 µM (inactive); in the assay on BT-549, > 100 µM (inactive); in the assay with HOP-92, 24.6 µM (inactive); with RXF 393, 59.4 µM (inactive); with K562, 37.8 µM (inactive); in the assay on HOP-62, 17.9 µM (inactive). The GI50 in the assay on COLO 205 is > 100 µM (inactive); in the assay on MOLT-4 it was 34.7 µM (inactive); with KM12, > 100 µM (inactive); in the assay with SNB-19, > 100 µM (inactive); in the assay with UACC-257 it was > 100 µM (inactive).

Take `COc1ccc(N)c(C(=O)CCNC(C)=O)c1` [KINURENAMINE]: the GI50 in the assay on HT-29 was > 100 µM (inactive); in the assay on OVCAR-4 it was > 100 µM (inactive); in the assay on HCT-15 it was over 100 µM; in the assay on CCRF-CEM it was > 100 µM (inactive); in the assay with OVCAR-8, > 100 µM (inactive); with M14 it was > 100 µM (inactive). The GI50 with SK-MEL-2, in the assay on A498, with BT-549, in the assay on HOP-92, in the assay with RXF 393 and in the assay on COLO 205 was > 100 µM (inactive) throughout. For the same molecule, the GI50 with MOLT-4, in the assay with KM12, in the assay with IGROV-1, in the assay on SNB-19 and in the assay on UACC-257 was > 100 µM (inactive) in each case.

For the molecule `N/C(=N\Nc1ccc(C(=O)O)cc1)c1cnccn1`, the GI50 was > 100 µM (inactive) in the assay on HT-29; > 100 µM (inactive) in the assay with OVCAR-4; over 100 µM with HCT-15; > 100 µM (inactive) in the assay on OVCAR-8; > 100 µM (inactive) in the assay on M14; > 100 µM (inactive) with SK-MEL-2. Besides, the GI50 with A498, in the assay with BT-549, in the assay on HOP-92, in the assay with RXF 393, in the assay on K562 and with HOP-62 was > 100 µM (inactive) in each case. In addition, the GI50 with COLO 205, in the assay on SK-MEL-28, in the assay with MOLT-4, in the assay on KM12, with IGROV-1 and in the assay on SNB-19 was > 100 µM (inactive) throughout. Also, the GI50 in the assay with UACC-257 was > 100 µM (inactive).

As to `COC(=O)c1cc(C#N)[nH]c1-c1ccc(C)s1`, the GI50 in the assay with OVCAR-4 was 76.2 µM (inactive); in the assay with HCT-15, 41.6 µM; with CCRF-CEM it was 53 µM (inactive); in the assay on OVCAR-8 it was 59.3 µM (inactive); with M14 it was > 100 µM (inactive); in the assay with A498, 26.9 µM (inactive). Also, the GI50 in the assay on BT-549 is 30.5 µM (inactive); with HOP-92 it was 30.2 µM (inactive); in the assay on RXF 393, 11.5 µM (inactive); in the assay with K562, > 100 µM (inactive); in the assay with HOP-62, 33 µM (inactive); in the assay with COLO 205, 64.3 µM (inactive). The GI50 with SK-MEL-28 is 56.4 µM (inactive); in the assay with MOLT-4, > 100 µM (inactive); with KM12, 92.7 µM (inactive); in the assay with SNB-19 it was > 100 µM (inactive); in the assay on UACC-257, 64.7 µM (inactive).

`O=[N+]([O-])c1cc(Br)cc2cc(Cl)cnc12`: the GI50 with HT-29 was > 100 µM (inactive); in the assay on OVCAR-4 it was > 100 µM (inactive); in the assay with HCT-15, over 100 µM; in the assay with CCRF-CEM, > 100 µM (inactive); in the assay with OVCAR-8 it was 62.4 µM (inactive); in the assay on M14, > 100 µM (inactive). The GI50 in the assay on A498 was 75.7 µM (inactive); with BT-549, 72.4 µM (inactive); in the assay on HOP-92, 1.02 µM (active); with RXF 393 it was 71.8 µM (inactive); with K562 it was > 100 µM (inactive); with HOP-62, > 100 µM (inactive). Besides, the GI50 in the assay on COLO 205 is > 100 µM (inactive); in the assay with SK-MEL-28, > 100 µM (inactive); in the assay with MOLT-4, > 100 µM (inactive); with KM12, > 100 µM (inactive); in the assay on IGROV-1, 10.1 µM (inactive); in the assay on SNB-19, > 100 µM (inactive). In the assay on UACC-257, the GI50 is > 100 µM (inactive).

For the molecule `O=c1[nH]c(Cc2ccccc2)nc2c1sc1nc3ccccc3n12`, the GI50 is > 100 µM (inactive) in the assay on HT-29; over 100 µM in the assay on HCT-15; > 100 µM (inactive) in the assay on CCRF-CEM; > 100 µM (inactive) in the assay with OVCAR-8; > 100 µM (inactive) in the assay with M14; > 100 µM (inactive) with SK-MEL-2. Also, the GI50 in the assay with A498, with BT-549, in the assay on HOP-92, in the assay with RXF 393, in the assay on COLO 205 and with SK-MEL-28 was > 100 µM (inactive) throughout. The GI50 was > 100 µM (inactive) with MOLT-4; > 100 µM (inactive) in the assay on KM12; > 100 µM (inactive) with IGROV-1; > 58.3 µM (inactive) in the assay with SNB-19; > 100 µM (inactive) with UACC-257.

For the molecule `CN(CCNC(=O)c1nn(C)c2c1Cc1ccccc1-2)CCNC(=O)c1nn(C)c2c1Cc1ccccc1-2`, the GI50 was 14 µM (inactive) with HT-29; 17.6 µM (inactive) in the assay with OVCAR-4; 16.7 µM in the assay on HCT-15; 17.5 µM (inactive) in the assay on OVCAR-8; 12.6 µM (inactive) in the assay with M14; 14.7 µM (inactive) with SK-MEL-2. Also, the GI50 was 15.2 µM (inactive) in the assay with A498; 16.2 µM (inactive) in the assay on BT-549; 12.9 µM (inactive) in the assay with HOP-92; 14.8 µM (inactive) in the assay on RXF 393; 12.7 µM (inactive) in the assay on K562; 15.4 µM (inactive) in the assay with HOP-62. In addition, the GI50 in the assay on COLO 205 was 11.9 µM (inactive); in the assay with SK-MEL-28, 16.1 µM (inactive); in the assay with MOLT-4, 12.4 µM (inactive); in the assay with KM12 it was 19.1 µM (inactive); with IGROV-1, 8.55 µM (inactive); with SNB-19 it was 15.6 µM (inactive). Further, the GI50 in the assay on UACC-257 was 14 µM (inactive).

As to `CC(=O)/C(=C/N1C(=O)CC(=O)NC1=S)C(=O)Nc1ccccc1C`, the GI50 in the assay with HT-29 was 23.5 µM (inactive); with OVCAR-4 it was 57.5 µM (inactive); in the assay on HCT-15 it was 42.5 µM; in the assay with OVCAR-8, > 100 µM (inactive); in the assay with M14 it was 76 µM (inactive); with SK-MEL-2, > 100 µM (inactive). Further, the GI50 with A498 is 28.1 µM (inactive); with BT-549, > 100 µM (inactive); in the assay on HOP-92, > 100 µM (inactive); in the assay on RXF 393 it was 78.3 µM (inactive); in the assay on HOP-62 it was 23.3 µM (inactive); in the assay with COLO 205 it was > 100 µM (inactive). The GI50 is 58.6 µM (inactive) in the assay with SK-MEL-28; 28 µM (inactive) with MOLT-4; 37.5 µM (inactive) in the assay with KM12; 91 µM (inactive) with IGROV-1; > 100 µM (inactive) in the assay on SNB-19; 80.5 µM (inactive) with UACC-257.
